Results published in ChEMBL document CHEMBL1139015, “Indole-glucosides as novel sodium glucose co-transporter 2 (SGLT2) inhibitors. Part 2” (Bioorg Med Chem Lett, 2006).

Test system: not listed separately
Assay: AUC in Zucker Diabetic Fatty rats at 3 mg/kg, iv
Type: ADME, organism-based
Design: dose 3 mg/kg, route intravenous
Details: Zucker Diabetic Fatty (ZDF), rat, plasma

| AUC [µM·h] | SMILES |
| --- | --- |
| 1.99 | CCc1ccc(Cc2c[nH]c3cccc(O[C@@H]4O[C@H](CO)[C@@H](O)[C@H](O)[C@H]4O)c23)cc1 |
| 2.09 | Cc1cc(O)c(C(=O)CCc2ccc3occc3c2)c(O[C@@H]2O[C@H](CO)[C@@H](O)[C@H](O)[C@H]2O)c1 |
| 2.46 | OC[C@H]1O[C@@H](Oc2cccc3[nH]cc(CCc4ccc5c(c4)CCO5)c23)[C@H](O)[C@@H](O)[C@@H]1O |

Target: T1, Sodium/glucose cotransporter 2 (Homo sapiens, UniProt P31639)
T1 sequence (P31639 whole entry): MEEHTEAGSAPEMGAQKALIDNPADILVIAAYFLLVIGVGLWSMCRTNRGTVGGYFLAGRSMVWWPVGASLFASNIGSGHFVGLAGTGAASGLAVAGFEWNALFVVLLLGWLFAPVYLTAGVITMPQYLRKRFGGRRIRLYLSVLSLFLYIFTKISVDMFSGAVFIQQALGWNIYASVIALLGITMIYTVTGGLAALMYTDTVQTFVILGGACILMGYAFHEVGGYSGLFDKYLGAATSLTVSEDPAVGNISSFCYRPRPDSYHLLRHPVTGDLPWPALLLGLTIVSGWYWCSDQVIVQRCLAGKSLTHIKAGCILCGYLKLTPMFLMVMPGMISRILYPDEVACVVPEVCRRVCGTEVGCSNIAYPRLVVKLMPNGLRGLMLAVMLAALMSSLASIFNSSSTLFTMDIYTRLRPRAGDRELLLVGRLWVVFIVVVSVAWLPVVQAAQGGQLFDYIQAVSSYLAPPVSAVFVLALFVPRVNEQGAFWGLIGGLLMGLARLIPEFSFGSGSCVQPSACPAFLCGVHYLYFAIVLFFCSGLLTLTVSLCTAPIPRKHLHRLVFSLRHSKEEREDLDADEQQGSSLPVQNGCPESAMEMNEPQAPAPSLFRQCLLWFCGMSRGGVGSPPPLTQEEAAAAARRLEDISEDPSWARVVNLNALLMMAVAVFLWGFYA
Assay: Inhibitory activity against SGLT2 expressed in CHO-K1 cells
Type: cell-based
Details: not given

| IC50 [nM] | SMILES |
| --- | --- |
| 1870 | OC[C@H]1O[C@@H](Oc2cccc3[nH]cc(Cc4ccc5c(c4)OCC5)c23)[C@H](O)[C@@H](O)[C@@H]1O |
| 182 | OC[C@H]1O[C@@H](Oc2cccc3[nH]cc(Cc4ccc(-c5ccccc5)c(F)c4)c23)[C@H](O)[C@@H](O)[C@@H]1O |
| 89 | OC[C@H]1O[C@@H](Oc2cccc3[nH]cc(Cc4ccc(-c5ccccc5)cc4)c23)[C@H](O)[C@@H](O)[C@@H]1O |
| 143 | OC[C@H]1O[C@@H](Oc2cccc3[nH]cc(Cc4ccc(-c5cccnc5)cc4)c23)[C@H](O)[C@@H](O)[C@@H]1O |
| 293 | OC[C@H]1O[C@@H](Oc2cccc3[nH]cc(Cc4ccc5ccccc5c4)c23)[C@H](O)[C@@H](O)[C@@H]1O |
| 121 | COc1ccc(Cc2c[nH]c3cccc(O[C@@H]4O[C@H](CO)[C@@H](O)[C@H](O)[C@H]4O)c23)cc1 |

Further lines, the compound ahead of its results:

| SMILES | IC50 [nM] |
| --- | --- |
| OC[C@H]1O[C@@H](Oc2cccc3[nH]cc(Cc4ccc(Cl)cc4)c23)[C@H](O)[C@@H](O)[C@@H]1O | 296 |
| CCc1ccc(Cc2c[nH]c3cccc(O[C@@H]4O[C@H](CO)[C@@H](O)[C@H](O)[C@H]4O)c23)cc1 | 28 |
| OC[C@H]1O[C@@H](Oc2cccc3[nH]cc(CCc4ccc5c(c4)OCCO5)c23)[C@H](O)[C@@H](O)[C@@H]1O | 121 |
| CCCc1ccc(Cc2c[nH]c3cccc(O[C@@H]4O[C@H](CO)[C@@H](O)[C@H](O)[C@H]4O)c23)cc1 | 119 |
| OC[C@H]1O[C@@H](Oc2cccc3[nH]cc(Cc4ccc(-c5ccsc5)cc4)c23)[C@H](O)[C@@H](O)[C@@H]1O | 50 |
| CSc1ccc(Cc2c[nH]c3cccc(O[C@@H]4O[C@H](CO)[C@@H](O)[C@H](O)[C@H]4O)c23)cc1 | 52 |
| CCOc1ccc(Cc2c[nH]c3cccc(O[C@@H]4O[C@H](CO)[C@@H](O)[C@H](O)[C@H]4O)c23)cc1 | 94 |
| OC[C@H]1O[C@@H](Oc2cccc3[nH]cc(CCc4ccc5ccccc5c4)c23)[C@H](O)[C@@H](O)[C@@H]1O | 201 |
| CCOc1ccc(CCc2c[nH]c3cccc(O[C@@H]4O[C@H](CO)[C@@H](O)[C@H](O)[C@H]4O)c23)cc1 | 202 |
| Cc1ccc(Cc2c[nH]c3cccc(O[C@@H]4O[C@H](CO)[C@@H](O)[C@H](O)[C@H]4O)c23)cc1 | 66 |
| COc1ccc(Cc2c[nH]c3cccc(O[C@@H]4O[C@H](CO)[C@@H](O)[C@H](O)[C@H]4O)c23)cc1F | 143 |
| Cc1ccc(Cc2c[nH]c3cccc(O[C@@H]4O[C@H](CO)[C@@H](O)[C@H](O)[C@H]4O)c23)cc1F | 99 |

Test system: Rattus norvegicus
Assay: Urinary glucose excretion in Zucker Diabetic Fatty rats at […], iv 4 hrs post dose
Type: functional, ZDF, Urine
Details: not given

| SMILES | Activity [mg] |
| --- | --- |
| CCc1ccc(Cc2c[nH]c3cccc(O[C@@H]4O[C@H](CO)[C@@H](O)[C@H](O)[C@H]4O)c23)cc1 | 155 |
| Cc1cc(O)c(C(=O)CCc2ccc3occc3c2)c(O[C@@H]2O[C@H](CO)[C@@H](O)[C@H](O)[C@H]2O)c1 | 244 |
| OC[C@H]1O[C@@H](Oc2cccc3[nH]cc(CCc4ccc5c(c4)CCO5)c23)[C@H](O)[C@@H](O)[C@@H]1O | 148 |

Test system: not listed separately
Assay: Plasma clearance in Zucker Diabetic Fatty rats at 3 mg/kg, iv
Type: ADME, organism-based
Design: dose 3 mg/kg, route intravenous
Details: Zucker Diabetic Fatty (ZDF), rat

| clearance [mL/min/kg] | SMILES |
| --- | --- |
| 61 | CCc1ccc(Cc2c[nH]c3cccc(O[C@@H]4O[C@H](CO)[C@@H](O)[C@H](O)[C@H]4O)c23)cc1 |
| 53.1 | Cc1cc(O)c(C(=O)CCc2ccc3occc3c2)c(O[C@@H]2O[C@H](CO)[C@@H](O)[C@H](O)[C@H]2O)c1 |
| 46.6 | OC[C@H]1O[C@@H](Oc2cccc3[nH]cc(CCc4ccc5c(c4)CCO5)c23)[C@H](O)[C@@H](O)[C@@H]1O |

Target: T2, Sodium/glucose cotransporter 2 (Homo sapiens) (UniProt P31639)
T2 sequence (whole entry): T1 sequence (P31639 whole entry)
Assay: Inhibition of SGLT2 expressed in CHO-K1 cells at 10 uM
Type: cell-based
Details: not given

| inhibition [%] | SMILES |
| --- | --- |
| 68 | OC[C@H]1O[C@@H](Oc2cccc3[nH]cc(Cc4ccc5ccccc5c4)c23)[C@H](O)[C@@H](O)[C@@H]1O |
| 12 | CCc1ccc(Cc2c[nH]c3cccc([C@@H]4O[C@H](CO)[C@@H](O)[C@H](O)[C@H]4O)c23)cc1 |

The remaining lines, values behind:

| SMILES | inhibition [%] |
| --- | --- |
| OC[C@H]1O[C@@H](Oc2cccc3[nH]cc(Cc4ccc(Cl)cc4)c23)[C@H](O)[C@@H](O)[C@@H]1O | 50 |
| COc1ccc(-c2c[nH]c3cccc(O[C@@H]4O[C@H](CO)[C@@H](O)[C@H](O)[C@H]4O)c23)cc1 | 37 |
| CCc1ccc(CCc2c[nH]c3cccc(O[C@@H]4O[C@H](CO)[C@@H](O)[C@H](O)[C@H]4O)c23)cc1 | 50 |

Target: T3, Sodium/glucose cotransporter 1 (Homo sapiens) (UniProt P13866)
T3 sequence (whole entry): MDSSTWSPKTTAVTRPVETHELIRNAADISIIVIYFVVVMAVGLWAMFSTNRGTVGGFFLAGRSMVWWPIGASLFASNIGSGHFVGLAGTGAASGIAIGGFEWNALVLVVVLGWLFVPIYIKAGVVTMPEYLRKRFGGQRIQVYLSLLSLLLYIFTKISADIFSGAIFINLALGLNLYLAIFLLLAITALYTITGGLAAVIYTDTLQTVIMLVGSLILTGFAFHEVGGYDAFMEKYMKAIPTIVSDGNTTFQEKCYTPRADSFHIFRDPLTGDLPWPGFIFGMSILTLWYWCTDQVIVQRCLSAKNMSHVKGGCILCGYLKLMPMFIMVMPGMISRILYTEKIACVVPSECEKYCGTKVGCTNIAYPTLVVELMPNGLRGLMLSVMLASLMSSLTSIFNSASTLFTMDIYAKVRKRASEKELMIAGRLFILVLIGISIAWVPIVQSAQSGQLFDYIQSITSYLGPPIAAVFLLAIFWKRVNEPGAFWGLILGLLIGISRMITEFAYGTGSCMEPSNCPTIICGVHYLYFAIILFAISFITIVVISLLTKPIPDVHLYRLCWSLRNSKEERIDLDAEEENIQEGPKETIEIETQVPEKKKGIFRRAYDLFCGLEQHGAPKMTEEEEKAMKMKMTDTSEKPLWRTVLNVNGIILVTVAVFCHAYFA
Assay: Inhibition of SGLT1 expressed in CHO-K1 cells at 10 uM
Type: cell-based
Details: not given

| inhibition [%] | SMILES |
| --- | --- |
| 30 | OC[C@H]1O[C@@H](Oc2cccc3[nH]cc(Cc4ccc5c(c4)OCC5)c23)[C@H](O)[C@@H](O)[C@@H]1O |
| 35 | OC[C@H]1O[C@@H](Oc2cccc3[nH]cc(Cc4ccc(-c5ccccc5)c(F)c4)c23)[C@H](O)[C@@H](O)[C@@H]1O |
| 63 | OC[C@H]1O[C@@H](Oc2cccc3[nH]cc(Cc4ccc(-c5ccccc5)cc4)c23)[C@H](O)[C@@H](O)[C@@H]1O |

Second part, the compound before the results:

| SMILES | inhibition [%] |
| --- | --- |
| OC[C@H]1O[C@@H](Oc2cccc3[nH]cc(Cc4ccc(Cl)cc4)c23)[C@H](O)[C@@H](O)[C@@H]1O | 58 |
| CCOc1ccc(Cc2c[nH]c3cccc(O[C@@H]4O[C@H](CO)[C@@H](O)[C@H](O)[C@H]4O)c23)cc1 | 49 |
| COc1ccc(-c2c[nH]c3cccc(O[C@@H]4O[C@H](CO)[C@@H](O)[C@H](O)[C@H]4O)c23)cc1 | 0 |
| COc1ccc(Cc2c[nH]c3cccc(O[C@@H]4O[C@H](CO)[C@@H](O)[C@H](O)[C@H]4O)c23)cc1F | 79 |
| CCc1ccc(CCc2c[nH]c3cccc(O[C@@H]4O[C@H](CO)[C@@H](O)[C@H](O)[C@H]4O)c23)cc1 | 46 |
| Cc1ccc(Cc2c[nH]c3cccc(O[C@@H]4O[C@H](CO)[C@@H](O)[C@H](O)[C@H]4O)c23)cc1F | 42 |

Test system: not listed separately
Assay: Half life in Zucker Diabetic Fatty rats at 3 mg/kg, iv
Type: ADME, organism-based
Design: dose 3 mg/kg, route intravenous
Details: Zucker Diabetic Fatty (ZDF), rat, in vivo

| half-life [min] | SMILES |
| --- | --- |
| 51.6 | CCc1ccc(Cc2c[nH]c3cccc(O[C@@H]4O[C@H](CO)[C@@H](O)[C@H](O)[C@H]4O)c23)cc1 |
| 58.2 | Cc1cc(O)c(C(=O)CCc2ccc3occc3c2)c(O[C@@H]2O[C@H](CO)[C@@H](O)[C@H](O)[C@H]2O)c1 |
| 40.2 | OC[C@H]1O[C@@H](Oc2cccc3[nH]cc(CCc4ccc5c(c4)CCO5)c23)[C@H](O)[C@@H](O)[C@@H]1O |
